{"source": "paper PMC11547576", "about": "“Identification of a New Promising BAG3 Modulator Featuring the Imidazopyridine Scaffold” (Molecules, 2024)", "key": {"HeLa cells [1]": {"system": "HeLa cells", "test": "MTT cell viability assay on HeLa cells", "format": "cell-based", "settings": "Homo sapiens, 72 h", "experimental": "Elevated expression levels of BAG3 are strongly associated with signaling pathways in various types of malignant cells; consequently, reducing the activity of this co-chaperone inhibits cell proliferation, triggers apoptosis, and induces cell cycle arrest. To assess the activity of compounds 10, 12, and 14, cytotoxicity assays were performed on HeLa cells, which were chosen for their tendency to overexpress BAG3 proteins. MTT assays were conducted by exposing HeLa cells to different concentrations of the compounds (25, 50, and 100 µM) for 72 h. Additionally, 10% DMSO was used as a positive control, while 0.1% DMSO served as a negative control. […] The next step involved the assessment of the cytotoxicity of the most promising candidate, 10, on healthy cells to determine its safety profile. To achieve this, MTT assays were conducted on HaCat cells over 72 h.\nHuman cervical carcinoma cell lines (HeLa, kindly donated by Prof. Ornella Moltedo, Department of Pharmacy, University of Salerno) and immortalized human keratinocytes (HaCaT) were cultured in a DMEM/high glucose medium. This medium was supplemented with 10% FBS (v/v), 2 mM/L glutamine, 100 U/mL penicillin, and […] streptomycin. The cells were maintained at 37 °C in a humidified atmosphere with 5% CO2. To ensure logarithmic growth, the cells were sub-cultured every 2 days.\nCell viability was assessed by measuring mitochondrial metabolic activity using a colorimetric assay, which involves the reduction of 3-[4,5-dimethylthiazol-2,5-diphenyl-2H-tetrazolium bromide (MTT) to purple formazan. Stock solutions of compounds 10, 12, and 14 (50 mM in DMSO) were stored at −20 °C in the dark and diluted just before being added to the sterile culture medium. Briefly, HeLa cells (3.5 × 10^3 cells/well) were seeded in triplicate in 96-well plates, and after 24 h, to allow for attachment, the cells were treated with various concentrations of the tested compounds (25, 50 and 100 μM), 0.1% (v/v) DMSO as a negative control, and 10% (v/v) DMSO as a positive control for 72 h. Following treatment, 20 μL of MTT (5 mg/mL in PBS) was added to each well, and the cells were incubated for an additional 3 h at 37 °C. The formazan crystals formed were then dissolved in 100 μL of a buffer containing 50% (v/v) N, N-dimethylformamide and 20% SDS (pH 4.5). Absorbance was measured at 570 nm using a Multiskan™ GO Microplate Spectrophotometer (Thermo Fisher Scientific, Waltham, MA, USA,). […] The IC50 values, representing the concentration causing 50% inhibition of cell survival, were calculated and compared to control cells treated with DMSO using GraphPad Prism 8.0 software through nonlinear regression of dose–response inhibition. Only for compound 10 was the IC50 also assessed on HaCaT cells (5.0 × 10^3 cells/well) after 72 h of treatment."}, "HeLa cells [2]": {"system": "HeLa cells", "test": "Annexin V-FITC/PI staining apoptosis assay (FACS)", "format": "cell-based, human", "settings": "72 h", "experimental": "Given BAG3’s well-documented anti-apoptotic role, annexin V-FITC/PI staining was performed to evaluate the effects of compound 10 on cell apoptosis. […] Specifically, at 50 µM, 81.0 ± 3.89% of the cells were apoptotic (p < 0.001 vs. Ctrl); at 30 µM, 70.5 ± 4.56% were apoptotic (p < 0.01 vs. Ctrl); and at 20 µM, 51.5 ± 2.23% were apoptotic (p < 0.05 vs. Ctrl) (Figure 3A,B).\nApoptosis of the cells was assessed using the Annexin V-FITC/PI reagents. Hela cells (20 × 10^3) were seeded into 24-well plates and incubated for 72 h with compound 10. After treatment, the collected cells were resuspended in a 100 μL assay buffer, then 5 μL Annexin V-FITC and 1 μL PI reagents were added following an incubation for 20 min at RT according to the manufacturer’s protocol (Dead Cell Apoptosis Kits with Annexin V for Flow Cytometry, Thermo Fisher Scientific). The cells were analyzed with a Becton Dickinson FACScan flow cytometer using the Cell Quest software, version 4 (Franklin Lakes, NJ, USA). See Supplementary Materials for the data plots (Figure S54)."}, "caspase 9": {"system": "caspase 9", "test": "Caspase 9 determination by flow cytometry", "format": "cell-based, human", "settings": "HeLa cells, 72 h, 50, 30 and 20 µM, vs control", "experimental": "Furthermore, we investigated the expressions of caspases, key mediators of programmed cell death, in HeLa cells treated with compound 10 at the same concentrations used in the previous assays. […] To further confirm the pro-apoptotic mechanism induced by compound 10, Western blotting was performed to measure the expression and cleavage of caspase 3 [38, 39].\nHeLa cells were seeded into 6-well plates (2.5 × 10^5 cells/well) and allowed to adhere for 24 h. The cells were then treated for 72 h with compound 10 at concentrations of 20, 30, and 50 µM, as well as with 0.1% DMSO negative (control), to assess caspase 3 and caspase 9 levels. After treatment, cells were collected, washed with PBS, and incubated at 4 °C first with a fixing buffer (containing 1% formaldehyde and 1% FBS in PBS) for 20 min, followed by permeabilization with fix perm solution (fixing buffer containing 0.1% Triton X-100) for 30 min. Next, the cells were incubated with anti-caspase 3 (1:500; SC-7272, Santa Cruz, CA, USA) and anti-caspase 9 (1:50; BS-0049R, Bioss Antibodies, Woburn, MA, USA) antibodies for 30 min at 4 °C. […] Cell fluorescence was then evaluated using a fluorescence-activated cell sorter (FACSscan, Becton Dickinson, Milan, Italy) and analyzed with Cell Quest software (4.0, Becton Dickinson, North Ryde, Australia). […]"}}, "data": [{"smiles": "CC(C)Nc1c(-c2ccccc2Br)nc2ccc(Cl)cn12", "note": "[Compound 10, 2-(2-bromophenyl)-6-chloro-N-isopropylimidazo[1,2-a]pyridin-3-amine]", "values": [{"measurement": "mortality at 25 µM", "setting": "HeLa cells [1]; 25 µM", "result": 50, "unit": "%"}, {"measurement": "mortality at 100 µM", "setting": "HeLa cells [1]; 100 µM", "result": "> 90", "unit": "%"}, {"measurement": "IC50", "setting": "HeLa cells [1]; seven concentrations (1 to 100 µM)", "result": "25.1 ± 2.67", "unit": "µM"}, {"measurement": "apoptotic cells", "setting": "HeLa cells [2]; 20 µM", "result": "51.5 ± 2.23", "unit": "%"}, {"measurement": "apoptotic cells", "setting": "HeLa cells [2]; 30 µM", "result": "70.5 ± 4.56", "unit": "%"}, {"measurement": "apoptotic cells", "setting": "HeLa cells [2]; 50 µM", "result": "81.0 ± 3.89", "unit": "%"}, {"measurement": "activation of caspase 9", "setting": "caspase 9", "result": "pronounced, dose-dependent activation"}]}]}
